The subject of test [1] is 5HT3 serotonin receptor. The experiment in a line: Serotonin (5HT3) binding assay ([3H]GR65630, NIE-115 neuroblastoma cells).
Procedure: The binding affinities of the compositions of this invention were assayed for various receptors. In these assays, the binding reaction was initiated by the addition of varying concentrations of the potential binding composition and a radioligand to an appropriate tissue. The assay was then incubated to allow binding. Binding was then terminated by dilution of the assay with a cold buffer, followed by rapid vacuum filtration onto Whatman GI/C filters that were presoaked in 0.1% polyethylene imine for at least 3 hours. Radioactivity trapped onto the filters was determined and compared to control values in order to ascertain any interactions of test compounds with the binding sites.
Incubation was conducted in 20 mM HEPES (pH 7.4) containing 150 mM NaCl at 25° C. for 30 minutes. The radioligand used was [^3 H]GR65630 (30-50 Ci/mmol). The final ligand concentration was 0.7 nM.
Test [2] concerns the target beta-adrenergic receptor. The experiment in a line: Beta-adrenergic (non-selective) binding assay ([3H]DHA). Details: species or system rat.
Test [3] concerns the target T1, D2 dopamine receptor (Rattus norvegicus, UniProt P61169).
T1 construct: rat striatal membranes; from tissue; host or cells: rat striatum membranes
Put plainly: Dopamine D2 binding assay ([3H]Sulpiride). To be noted: for dopamine receptor binding affinity / selectivity for the D2 over the D1 dopamine receptor: in words. On the procedure: The final ligand concentration was 0.5 nM.

For test [4], the target named is alpha2-adrenergic receptor. The experiment in a line: Alpha2-adrenergic (non-selective) binding assay ([3H]RX 781094). Details: species or system rat. The conditions noted are these: for Ki: Table III, rat cortical membranes, read-out: α2 receptor binding affinity Ki; for α2 receptor binding affinity: in words.
Test [5] addresses T2, 5HT1A serotonin receptor (Bos taurus, UniProt F6Q2H9).
T2 construct: bovine hippocampus; from tissue; host or cells: bovine hippocampus
T2 sequence (F6Q2H9 1-422): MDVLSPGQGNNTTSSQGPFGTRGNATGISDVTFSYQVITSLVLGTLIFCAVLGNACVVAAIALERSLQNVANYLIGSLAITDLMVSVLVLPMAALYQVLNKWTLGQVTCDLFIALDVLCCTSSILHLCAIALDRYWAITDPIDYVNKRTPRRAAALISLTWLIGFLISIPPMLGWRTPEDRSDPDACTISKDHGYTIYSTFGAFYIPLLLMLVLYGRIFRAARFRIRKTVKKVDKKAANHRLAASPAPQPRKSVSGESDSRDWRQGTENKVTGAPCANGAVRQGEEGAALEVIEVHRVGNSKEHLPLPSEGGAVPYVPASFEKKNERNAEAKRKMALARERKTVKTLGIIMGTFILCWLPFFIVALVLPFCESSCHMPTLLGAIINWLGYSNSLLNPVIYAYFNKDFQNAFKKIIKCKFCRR
Put plainly: Serotonin (5HT1A) binding assay ([3H]-8-OH-DPAT). Details: species or system bovine. The conditions noted are these: for Ki: Table III, bovine hippocampus, read-out: 5-HT1A receptor binding affinity Ki; for 5HT1A serotonin receptor binding affinity: in words.

Test [6] addresses T3, 5HT2 serotonin receptor (Rattus norvegicus, UniProt P14842).
T3 construct: rat cortical membranes; from tissue; host or cells: rat cortex membranes
The experiment in a line: Serotonin (5HT2) binding assay ([3H]Ketanserin). On the procedure: The final ligand concentration was 1.0 nM.

Test [7] has as its target alpha1-adrenergic receptor. The conditions noted are these: for Ki: read-out: α1 receptor binding affinity Ki, Table III, rat forebrain membranes.
Test [8] addresses 5HT1 serotonin receptor. Put plainly: Serotonin (5HT1) binding assay.
Procedure: In these assays, the binding reaction was initiated by the addition of varying concentrations of the potential binding composition and a radioligand to an appropriate tissue. The assay was then incubated to allow binding. Binding was then terminated by dilution of the assay with a cold buffer, followed by rapid vacuum filtration onto Whatman GI/C filters that were presoaked in 0.1% polyethylene imine for at least 3 hours. Radioactivity trapped onto the filters was determined and compared to control values in order to ascertain any interactions of test compounds with the binding sites.
Incubation was conducted in 50 mM TRIS-HCl (pH 7.4) at 45 minutes for 37° C. The radioligand used was [^3 H]Hydroxytryptamine binoxalate (15-30 Ci/mmol). The final ligand concentration was 3.0 nM.
Setting [9] is: read-out: Ki of reference compounds, 5HT3, Table X.
The mark [10] stands for this setting: Table VI, read-out: Ki of reference compounds, beta-adrenergic.
Setting [11] is: read-out: Ki of reference compounds, 5HT1, Table VII.

Like-named read-outs stand apart in the source and are kept apart here.

T3 sequence (P14842 whole entry): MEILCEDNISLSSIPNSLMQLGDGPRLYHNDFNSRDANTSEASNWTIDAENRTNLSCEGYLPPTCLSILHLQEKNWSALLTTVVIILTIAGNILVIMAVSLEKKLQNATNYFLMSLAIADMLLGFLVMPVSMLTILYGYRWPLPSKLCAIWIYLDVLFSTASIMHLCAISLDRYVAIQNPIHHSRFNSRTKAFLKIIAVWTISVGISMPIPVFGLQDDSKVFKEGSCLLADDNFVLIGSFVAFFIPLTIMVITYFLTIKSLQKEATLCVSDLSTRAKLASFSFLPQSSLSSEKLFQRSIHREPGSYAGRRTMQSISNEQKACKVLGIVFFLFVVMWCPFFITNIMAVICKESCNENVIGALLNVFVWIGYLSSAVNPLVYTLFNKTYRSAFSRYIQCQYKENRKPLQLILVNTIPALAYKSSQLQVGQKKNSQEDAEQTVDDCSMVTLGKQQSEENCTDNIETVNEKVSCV
T1 sequence (P61169 whole entry): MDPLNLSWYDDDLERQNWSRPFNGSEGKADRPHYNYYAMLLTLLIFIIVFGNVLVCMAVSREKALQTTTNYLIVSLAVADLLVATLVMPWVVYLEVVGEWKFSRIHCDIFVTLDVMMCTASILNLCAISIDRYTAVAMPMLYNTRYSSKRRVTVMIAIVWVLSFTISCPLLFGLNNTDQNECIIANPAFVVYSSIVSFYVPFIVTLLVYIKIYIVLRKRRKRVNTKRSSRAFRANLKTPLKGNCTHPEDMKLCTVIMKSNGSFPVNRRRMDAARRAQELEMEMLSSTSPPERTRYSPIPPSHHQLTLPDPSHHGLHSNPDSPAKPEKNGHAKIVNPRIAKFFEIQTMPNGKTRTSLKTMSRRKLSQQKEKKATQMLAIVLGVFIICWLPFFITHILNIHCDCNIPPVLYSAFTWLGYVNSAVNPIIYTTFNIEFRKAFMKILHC

For `c1ccc2nc(N3CCNCC3)ccc2c1` [Quipazin], in test [1] (setting [9]), the Ki is 0.0015 µM.

Consider `CC(C)NCC(O)COc1cccc2[nH]ccc12` (stereo not shown) [Pindolol], for which the Ki in test [2] (setting [10]) is 0.0011 µM.

Take `Oc1ccc2c(c1O)CC[C@@H]1[C@@H]2CCCN1CCc1cccs1` (relative stereo) [trans-33]: the Ki in test [3] was 0.057 µM; in test [4] it was 0.019 µM; in test [5], 0.19 µM; in test [6] it was 0.1 µM; in test [7], 0.18 µM; in test [8] (read-out: 5-HT1 receptor binding affinity Ki, Table III, rat cortical membranes) it was 1.8 µM. The “dopamine receptor binding affinity” value in test [3] is “good dopamine receptor binding affinities”. The “selectivity for the D2 over the D1 dopamine receptor” value in test [3] was “highly selective for the D2 dopamine receptor over the D1 dopamine receptor”. Moreover, the “α2 receptor binding affinity” value in test [4] is listed as “high binding affinities for the α2 receptor”. Also, the “5HT1A serotonin receptor binding affinity” value in test [5] was “high binding affinities for the 5HT1A serotonin receptor”.

On to `NCCc1c[nH]c2ccc(O)cc12` [Serotonin, reference compound], for which the Ki in test [8] (read-out: Ki characterizing the 5HT1 assay, assay characterization) was 0.0028 µM; in test [8] (setting [11]) it was 0.0046 µM; in test [1] (setting [9]), 0.0187 µM.

On to `CCN(CC)CCNC(=O)c1cc(Cl)c(N)cc1OC` [Metoclopramide], for which the Ki in test [1] (setting [9]) amounted to 0.191 µM.

With `COCCc1ccc(OCC(O)CNC(C)C)cc1` (stereo not shown) [Metoprotol], in test [2] (setting [10]), the inhibition constant (Ki) was 0.045 µM.

On to `CN1[C@@H]2CC[C@H]1C[C@@H](OC(=O)c1cc(Cl)cc(Cl)c1)C2` [MDL-72222], for which the Ki in test [1] (read-out: Ki characterizing the 5HT3 assay, assay characterization) is 0.0003 µM; in test [1] (setting [9]), 0.0072 µM.

As for `CC(C)(C)NCC(O)c1ccc(O)c(CO)c1` (stereo not shown) [Albuterol], in test [2] (setting [10]), the Ki was determined as 2.88 µM.

As for `COc1ccc2[nH]cc(CCN)c2c1` [5-Methoxytryptamine, reference compound], the Ki in test [8] (setting [11]) stood at 0.0458 µM.

For the compound `C=CCc1ccccc1OCC(O)CNC(C)C` (stereo not shown) [Alprenolol], the Ki in test [2] (setting [10]) stood at 0.0035 µM; in test [2] (assay characterization, read-out: Ki characterizing the beta assay), 0.00174 µM.

On to `Oc1cccc2c1CC[C@@H]1[C@@H]2CCCN1CCc1cccs1` (relative stereo) [trans-31], for which the Ki in test [3] turned out to be 0.0019 µM; in test [4], 0.0072 µM; in test [5] it was 0.036 µM; in test [6], 0.08 µM; in test [7], 0.017 µM. For the same compound, the “dopamine receptor binding affinity” value in test [3] was “good dopamine receptor binding affinities”. Moreover, in test [3], the “selectivity for the D2 over the D1 dopamine receptor” value is “highly selective for the D2 dopamine receptor over the D1 dopamine receptor”. The “α2 receptor binding affinity” value in test [4] is “high binding affinities for the α2 receptor”. The “5HT1A serotonin receptor binding affinity” value in test [5] is on record as “high binding affinities for the 5HT1A serotonin receptor”. Further, the “5HT2 serotonin receptor binding affinity” value in test [6] (in words) is listed as “high binding affinities for the 5HT2 serotonin receptor”. Besides, in test [7] (in words), the “α1 receptor binding affinity” value is given as “high binding affinities for the α1 receptor”.
